Source: ChEMBL document CHEMBL1201862, “PubChem BioAssay data set” (2004)
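Growth conditions: 96-well plates. Treatment: test compound, 48 hours, 5 concentrations. Analysis: linear interpolation between bracketing concentrations; unreached endpoints set to highest concentration. GI50 marks 50% less growth.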 Calls of active or inactive are those of the source. No stated cut-off is given here; in the data, active = GI50 up to about 1.1 µM and inactive = higher.

Assays:
Assay in all cases: NCI anticancer screen, dose series, 48 h
[1] = system: DLD-1
[2] = system: DMS-273
[3] = system: HOP-18
[4] = system: KM-20L2
[5] = system: LXFL 529
[6] = system: RXF 631
[7] = system: SNB-78
[8] = system: XF498

Measured: GI50

O=C(CC1(O)C(=O)Nc2c(Cl)ccc(Cl)c21)c1ccc(F)cc1 (stereo not drawn)
inactive: [1] 52.5 µM | [2] 33.7 µM | [3] 29.6 µM | [4] 39.8 µM | [5] 19.4 µM | [6] 37 µM | [7] 35.6 µM | [8] 32.7 µM
